Measurements published in patent US7682635B2, “Aqueous dispersions of nanometric or micrometric particles for encapsulating chemical compounds” (Centre National de la Recherche Scientifique (C.N.R.S.), priority 2002, dated 2010).

Assay: Encapsulation of benzophenone in particles (ultracentrifugation, spectrophotometry of supernatant at 261 nm)
Format: physicochemical
Description: An aqueous solution of polymer P2 as defined in Example 1 (0.44 g/l) was produced, to which benzophenone was added with a molar ratio of benzophenone added: cyclodextrin equal to 1:1. This solution was left under agitation for 24 hours.
A composition of particles was prepared by mixture of 1 ml of the solution thus obtained with 1 ml of a solution of modified dextran DM3 as defined in Example 1 (0.44 g/l).
After mixture, the particles produced were ultracentrifuged (30 minutes at 40000 r.p.m. in a Beckman L7-55 centrifuge). The non-encapsulated benzophenone present in the supernatant was dosaged by spectrophotometry (absorption line at 261 nm).
The experiment was repeated using a molar ratio of benzophenone added: cyclodextrin equal to 1:3 for the solution of polymer P2.
The experiment was also repeated using modified dextran DM4 instead of DM3.
Finally, the experiment was also repeated using a molar ratio of benzophenone added cyclodextrin equal to 1:3 for the solution of polymer P2 and also replacing the modified dextran DM3 by DM4.

SMILES: O=C(c1ccccc1)c1ccccc1 [benzophenone]
- benzophenone initially introduced found in the supernatant (4 cases: P2 with DM3 or DM4, benzophenone:cyclodextrin 1:1 or 1:3, after ultracentrifugation): less than 70%
- benzophenone content of particles (molar ratio benzophenone:cyclodextrin 1:1 in the initial solution of P2): 1 % by mass
- benzophenone content of particles (molar ratio benzophenone:cyclodextrin 1:3): 3 % by mass
